Columns and labels:
young rats = test: Reversal of scopolamine effect in young rats; assay type: in vivo
presynaptic cells = test: Dopamine release from presynaptic cells; assay type: cell-based; details: different from compounds such as Amphetamines

[O-][S+](Cc1cccs1)C(c1ccccc1)c1cccc(Br)c1 [2-2, 2-(((((R),(R)-3-bromophenyl)(phenyl)methyl)sulfinyl)methyl)thiophene] was tested, and the “effect of compounds such as scopolamine” value (young rats) was “reversed” and the “release of dopamin from presynaptic cells” value (presynaptic cells) was “does not induce release”.

Source: patent publication EP3929184A1, “((((3-HALOPHENYL)(PHENYL)METHYL)SULFINYL)METHYL)THIOPHENE COMPOUNDS AND DIASTEREOMERIC FORMS THEREOF FOR USE IN IMPROVING COGNITIVE FUNCTIONS” (Red Bull GmbH, priority 2020, dated 2021)
